Source: patent US8173813B2, “Quinolone and tetrahydroquinolone and related compounds having NOS inhibitory activity” (NeurAxon, Inc., priority 2007, dated 2012)
Several values for one entry are separate records, joined by “and”; a condition that tells them apart may be missing. Identical values can stand only once. Counter-ions that a name gives are not always drawn. Like-named read-outs stand apart in the source and are kept apart here.

Key:
[1] = target: Nitric oxide synthase (neuronal, human recombinant) nNOS (Homo sapiens, UniProt P29475); test: Human nNOS enzyme assay ([3H]L-arginine to [3H]L-citrulline); assay type: biochemical; conditions: for IC50: read-out: hnNOS IC50; for Selectivity eNOS/nNOS: human enzymes, ratio of eNOS IC50 to nNOS IC50
[2] = target: Recombinant human inducible NOS (iNOS) (Homo sapiens, UniProt P35228); test: Human iNOS enzyme assay, radiometric; assay type: biochemical; conditions: read-out: hiNOS IC50
nNOS (Rat) = nNOS (Rat) (Rattus norvegicus, UniProt P29476); test: nNOS (Rat) enzyme assay; assay type: biochemical; conditions: for IC50: read-out: nNOS IC50 (rodent data in parentheses); for Selectivity eNOS/nNOS (rodent data in parentheses): rodent enzymes
Protocol: (§1) nNOS (Rat), eNOS (Rat) and iNOS (Mouse) Enzyme Assay Recombinant rat or mouse NO synthases (iNOS, eNOS, nNOS) were expressed in Sf9 cells (Sigma), 36 mg prot/ml (Bradford). […] Inhibition of NOS was determined by measuring the formation of L-[3H] citrulline from L-[3H] arginine. […] Stop buffer:100 mM Hepes, pH 5.5, 3 mM EDTA, 3 mM EGTA.

eNOS (Rat) = eNOS (Rat) (Rattus norvegicus, UniProt Q62600); test: eNOS (Rat) enzyme assay; assay type: biochemical; conditions: values in parentheses; for IC50: read-out: eNOS IC50 (rodent data in parentheses)
iNOS (Mouse) = iNOS (Mouse) (Mus musculus, UniProt P29477); test: iNOS (Mouse) enzyme assay; assay type: biochemical; conditions: values in parentheses, read-out: iNOS IC50 (rodent data in parentheses)
Protocol: as §1, with “EGTA. Enzyme and inhibitor were pre-incubated for 35 min in the presence of NADPH before addition of arginine to initiate the reaction.” for “EGTA.”

[3] = tested on: Rats with L5/L6 spinal nerve ligation; test: Chung Spinal Nerve Ligation model, thermal hyperalgesia; assay type: in vivo, rat; conditions: standard dosings 3, 10, and 30 mg/kg injected IP
[4] = target: Nitric oxide synthase (endothelial, human recombinant) eNOS (Homo sapiens, UniProt P29474); test: Human eNOS enzyme assay ([3H]L-arginine to [3H]L-citrulline); assay type: biochemical; conditions: read-out: heNOS IC50
[5] = tested on: Male, Sprague Dawley rats; test: Porreca model of allodynia (inflammatory soup onto the dura, hindpaw von Frey); assay type: in vivo, rat
[6] = human recombinant eNOS, values without parentheses
[7] = human recombinant nNOS, values without parentheses
[8] = rat nNOS, values in parentheses
[9] = human recombinant iNOS, values without parentheses

Chain of Nitric oxide synthase (endothelial, human recombinant) eNOS (P29474 2-1203): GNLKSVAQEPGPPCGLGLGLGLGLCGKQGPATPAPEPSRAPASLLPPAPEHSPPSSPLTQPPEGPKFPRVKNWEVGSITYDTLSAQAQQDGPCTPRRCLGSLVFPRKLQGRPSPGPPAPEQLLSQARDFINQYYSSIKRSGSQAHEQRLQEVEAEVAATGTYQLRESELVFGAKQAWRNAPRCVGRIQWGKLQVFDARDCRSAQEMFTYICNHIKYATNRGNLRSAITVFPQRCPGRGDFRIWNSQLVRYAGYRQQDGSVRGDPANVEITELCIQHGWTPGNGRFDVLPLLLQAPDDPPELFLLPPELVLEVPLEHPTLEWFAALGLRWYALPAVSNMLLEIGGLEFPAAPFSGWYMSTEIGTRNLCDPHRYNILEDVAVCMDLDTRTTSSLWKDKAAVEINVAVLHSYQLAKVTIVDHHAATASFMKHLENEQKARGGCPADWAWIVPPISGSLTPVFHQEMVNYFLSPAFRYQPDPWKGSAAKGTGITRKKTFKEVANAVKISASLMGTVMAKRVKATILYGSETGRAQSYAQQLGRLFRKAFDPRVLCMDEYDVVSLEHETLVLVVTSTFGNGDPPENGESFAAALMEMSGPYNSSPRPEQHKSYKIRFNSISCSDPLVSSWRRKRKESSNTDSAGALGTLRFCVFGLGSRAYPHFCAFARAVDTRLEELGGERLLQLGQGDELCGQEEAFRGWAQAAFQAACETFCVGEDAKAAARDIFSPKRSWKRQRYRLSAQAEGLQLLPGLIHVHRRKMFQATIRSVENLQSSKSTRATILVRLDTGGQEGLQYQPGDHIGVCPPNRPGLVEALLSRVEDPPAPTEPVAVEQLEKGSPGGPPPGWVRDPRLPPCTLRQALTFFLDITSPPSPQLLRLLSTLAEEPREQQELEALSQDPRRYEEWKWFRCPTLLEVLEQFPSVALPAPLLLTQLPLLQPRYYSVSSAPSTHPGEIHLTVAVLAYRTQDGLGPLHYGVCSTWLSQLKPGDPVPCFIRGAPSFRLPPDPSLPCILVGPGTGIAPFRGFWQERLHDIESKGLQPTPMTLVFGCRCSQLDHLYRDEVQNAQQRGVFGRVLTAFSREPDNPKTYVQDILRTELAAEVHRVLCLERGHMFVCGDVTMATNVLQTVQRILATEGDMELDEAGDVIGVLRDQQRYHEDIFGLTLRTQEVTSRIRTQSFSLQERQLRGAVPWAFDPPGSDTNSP
Chain of Recombinant human inducible NOS (iNOS) (P35228 whole entry): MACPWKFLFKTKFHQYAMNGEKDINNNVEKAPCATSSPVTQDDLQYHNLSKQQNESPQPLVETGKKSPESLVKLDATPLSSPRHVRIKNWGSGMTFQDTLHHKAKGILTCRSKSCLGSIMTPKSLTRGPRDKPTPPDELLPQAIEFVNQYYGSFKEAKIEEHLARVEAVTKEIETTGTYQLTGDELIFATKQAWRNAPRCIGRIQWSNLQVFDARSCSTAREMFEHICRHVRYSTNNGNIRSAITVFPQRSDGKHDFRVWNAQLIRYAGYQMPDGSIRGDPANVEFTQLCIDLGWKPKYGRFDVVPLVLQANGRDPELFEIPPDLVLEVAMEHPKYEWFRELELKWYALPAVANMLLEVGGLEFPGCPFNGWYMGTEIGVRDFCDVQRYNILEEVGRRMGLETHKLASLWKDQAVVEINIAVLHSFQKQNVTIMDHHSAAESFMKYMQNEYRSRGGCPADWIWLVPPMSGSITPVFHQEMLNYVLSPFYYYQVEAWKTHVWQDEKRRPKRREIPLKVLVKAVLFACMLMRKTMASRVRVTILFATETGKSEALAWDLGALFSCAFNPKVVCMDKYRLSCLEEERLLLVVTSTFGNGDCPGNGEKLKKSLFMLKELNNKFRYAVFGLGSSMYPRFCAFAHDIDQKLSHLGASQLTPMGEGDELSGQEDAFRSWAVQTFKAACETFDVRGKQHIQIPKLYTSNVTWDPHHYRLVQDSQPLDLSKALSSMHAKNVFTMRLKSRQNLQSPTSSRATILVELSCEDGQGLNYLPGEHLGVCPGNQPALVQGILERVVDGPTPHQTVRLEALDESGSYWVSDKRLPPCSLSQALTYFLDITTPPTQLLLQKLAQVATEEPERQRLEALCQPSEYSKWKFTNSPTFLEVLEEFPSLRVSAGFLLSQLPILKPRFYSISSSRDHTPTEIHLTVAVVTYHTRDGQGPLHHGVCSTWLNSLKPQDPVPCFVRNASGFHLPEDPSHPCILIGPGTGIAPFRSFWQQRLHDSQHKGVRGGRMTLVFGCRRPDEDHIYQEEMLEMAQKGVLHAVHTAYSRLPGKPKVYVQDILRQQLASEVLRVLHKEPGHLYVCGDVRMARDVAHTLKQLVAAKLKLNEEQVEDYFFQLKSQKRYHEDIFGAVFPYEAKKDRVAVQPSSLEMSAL
Chain of eNOS (Rat) (Q62600 2-1202): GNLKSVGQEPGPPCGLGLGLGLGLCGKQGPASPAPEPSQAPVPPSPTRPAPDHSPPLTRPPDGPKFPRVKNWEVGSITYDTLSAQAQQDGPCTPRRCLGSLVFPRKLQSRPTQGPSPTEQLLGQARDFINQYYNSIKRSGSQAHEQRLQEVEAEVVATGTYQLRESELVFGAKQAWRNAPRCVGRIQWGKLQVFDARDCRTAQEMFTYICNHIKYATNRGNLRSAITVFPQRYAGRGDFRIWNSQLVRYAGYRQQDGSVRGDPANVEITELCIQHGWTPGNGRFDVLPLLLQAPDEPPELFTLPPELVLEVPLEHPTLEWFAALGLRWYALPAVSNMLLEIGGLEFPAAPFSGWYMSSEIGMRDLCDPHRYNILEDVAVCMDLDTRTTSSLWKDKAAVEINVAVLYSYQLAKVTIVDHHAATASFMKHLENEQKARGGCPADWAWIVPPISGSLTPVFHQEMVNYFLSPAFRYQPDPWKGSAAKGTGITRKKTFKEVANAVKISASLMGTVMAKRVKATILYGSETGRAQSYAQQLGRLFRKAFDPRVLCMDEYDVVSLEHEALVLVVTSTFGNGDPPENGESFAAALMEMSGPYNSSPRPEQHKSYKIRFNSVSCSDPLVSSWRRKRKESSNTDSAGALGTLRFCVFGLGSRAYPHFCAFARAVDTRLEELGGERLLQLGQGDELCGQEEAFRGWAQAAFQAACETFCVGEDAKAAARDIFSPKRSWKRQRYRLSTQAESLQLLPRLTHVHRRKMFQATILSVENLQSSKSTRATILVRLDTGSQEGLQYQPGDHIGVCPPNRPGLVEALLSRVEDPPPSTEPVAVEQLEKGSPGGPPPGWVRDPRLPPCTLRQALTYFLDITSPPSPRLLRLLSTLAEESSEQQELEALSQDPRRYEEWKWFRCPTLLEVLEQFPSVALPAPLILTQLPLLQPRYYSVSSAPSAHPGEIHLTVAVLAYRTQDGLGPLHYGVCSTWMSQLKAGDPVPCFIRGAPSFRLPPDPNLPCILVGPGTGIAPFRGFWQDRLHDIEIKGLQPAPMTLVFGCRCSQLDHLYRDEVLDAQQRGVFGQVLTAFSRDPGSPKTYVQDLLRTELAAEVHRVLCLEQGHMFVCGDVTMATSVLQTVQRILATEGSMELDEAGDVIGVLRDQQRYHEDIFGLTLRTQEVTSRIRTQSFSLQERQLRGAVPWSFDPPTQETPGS
Chain of Nitric oxide synthase (neuronal, human recombinant) nNOS (P29475 whole entry): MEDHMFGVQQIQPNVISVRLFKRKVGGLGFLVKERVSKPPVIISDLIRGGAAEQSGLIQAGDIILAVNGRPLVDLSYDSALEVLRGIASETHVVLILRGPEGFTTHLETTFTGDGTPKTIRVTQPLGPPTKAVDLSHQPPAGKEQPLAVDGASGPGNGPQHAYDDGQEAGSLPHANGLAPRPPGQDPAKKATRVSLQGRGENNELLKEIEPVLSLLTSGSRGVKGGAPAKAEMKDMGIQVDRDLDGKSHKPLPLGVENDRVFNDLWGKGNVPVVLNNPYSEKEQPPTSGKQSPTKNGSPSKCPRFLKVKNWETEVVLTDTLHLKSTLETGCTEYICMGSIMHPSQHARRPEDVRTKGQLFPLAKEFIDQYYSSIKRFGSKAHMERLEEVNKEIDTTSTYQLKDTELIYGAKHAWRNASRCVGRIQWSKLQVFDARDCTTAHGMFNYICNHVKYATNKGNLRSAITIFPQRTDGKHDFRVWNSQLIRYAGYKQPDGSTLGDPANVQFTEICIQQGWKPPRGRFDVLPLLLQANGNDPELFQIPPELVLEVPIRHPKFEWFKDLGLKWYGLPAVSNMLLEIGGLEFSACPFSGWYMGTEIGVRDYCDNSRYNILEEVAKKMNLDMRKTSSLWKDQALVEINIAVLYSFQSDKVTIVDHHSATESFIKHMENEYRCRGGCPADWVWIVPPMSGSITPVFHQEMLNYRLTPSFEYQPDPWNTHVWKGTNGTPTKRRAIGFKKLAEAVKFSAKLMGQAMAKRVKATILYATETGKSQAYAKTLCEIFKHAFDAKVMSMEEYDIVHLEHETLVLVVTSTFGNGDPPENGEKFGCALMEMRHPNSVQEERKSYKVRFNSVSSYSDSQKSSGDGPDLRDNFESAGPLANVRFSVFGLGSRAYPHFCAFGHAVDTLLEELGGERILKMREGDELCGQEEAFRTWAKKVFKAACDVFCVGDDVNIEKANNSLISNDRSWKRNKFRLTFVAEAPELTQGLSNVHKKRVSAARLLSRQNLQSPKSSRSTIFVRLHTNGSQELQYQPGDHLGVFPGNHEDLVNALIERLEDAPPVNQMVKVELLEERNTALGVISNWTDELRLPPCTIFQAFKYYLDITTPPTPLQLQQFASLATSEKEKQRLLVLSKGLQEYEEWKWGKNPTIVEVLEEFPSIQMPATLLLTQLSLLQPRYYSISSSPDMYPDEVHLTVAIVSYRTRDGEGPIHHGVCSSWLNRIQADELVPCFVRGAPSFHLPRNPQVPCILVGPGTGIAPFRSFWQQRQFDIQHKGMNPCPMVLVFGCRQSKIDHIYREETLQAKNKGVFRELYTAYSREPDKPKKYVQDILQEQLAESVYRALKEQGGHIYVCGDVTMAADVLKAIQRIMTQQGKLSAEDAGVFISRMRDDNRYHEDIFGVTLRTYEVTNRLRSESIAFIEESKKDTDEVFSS

Row | IC50 (eNOS (Rat)) | IC50 (iNOS (Mouse)) | Selectivity eNOS/nNOS [1] | IC50 [4, 6] | IC50 [1, 7] | IC50 (nNOS (Rat); [8]) | IC50 [4] | IC50 [2, 9] | eNOS IC50 (rodent data in parentheses) (eNOS (Rat)) | SMILES | IC50 [1] | IC50 [2] | IC50 (nNOS (Rat)) | antihyperalgesic effect in the Chung model [3] | Selectivity eNOS/nNOS (rodent data in parentheses) (nNOS (Rat); values in parentheses) | hindpaw allodynia after inflammatory soup (IS) ([5]; 30 mg/kg p.o. 15 minutes prior to IS) | hindpaw allodynia after inflammatory soup (IS) ([5]; 1 mg/kg s.c. 5 minutes prior to the soup, measured two hours after IS)
1 | 62.7 µM | > 100 µM |  |  | 0.44 µM | 0.12 µM | 99.1 µM | 35.7 µM |  | CN(C)CCN1CCCCc2cc(NC(=N)c3cccs3)ccc21.Cl.Cl [Example 28, N-(1-(2-(Dimethylamino)ethyl)-2,3,4,5-tetrahydro-1H-benzo[b]azepin-7-yl)thiophene-2-carboximidamide dihydrochloride] |  |  |  | clear antihyperalgesic effect |  | reverses the development of hindpaw allodynia | 
2 | > 100 µM | > 100 µM |  |  |  | 0.15 µM | 23.5 µM | 15.6 µM and 6.94 µM |  | N=C(Nc1ccc2c(c1)CCCN2C1CCNC1)c1cccs1 (stereo not drawn) [Example 29, N-(1-(Pyrrolidin-3-yl)-1,2,3,4-tetrahydroquinolin-6-yl)thiophene-2-carboximidamide dihydrochloride] | 0.25 µM |  |  |  |  |  | 
3 |  | > 100 µM |  | 24.7 µM and 29 µM | 0.57 µM and 0.38 µM and 0.18 µM | 0.192 µM | 40.7 µM | > 100 µM | (inactive) | CNCCN1CCCc2cc(NC(=N)c3cccs3)ccc21.Cl.Cl [Example 30, N-(1-(2-(Methylamino)ethyl)-1,2,3,4-tetrahydroquinolin-6-yl)thiophene-2-carboximidamide dihydrochloride] |  |  |  |  |  |  | 
4 | > 100 µM | > 100 µM | 38.3 | 22.9 µM | 0.6 µM | 0.99 µM |  | 5.52 µM |  | CN1CCC(C2C(=O)Nc3ccc(NC(=N)c4cccs4)cc32)CC1 (stereo not drawn) [Example 31, N-(3-(1-Methylpiperidin-4-yl)-2-oxoindolin-5-yl)thiophene-2-carboximidamide] |  |  |  |  |  |  | 
5 | > 100 µM | > 100 µM | 83.2 | 37.7 µM | 0.45 µM | 0.94 µM |  | 0.26 µM |  | CN(C)CCN1CCCc2ccc(NC(=N)c3cccs3)cc21 [Example 32, N-(1-(2-(Dimethylamino)ethyl)-1,2,3,4-tetrahydroquinolin-7-yl)thiophene-2-carboximidamide] |  |  |  |  |  |  | 
6 |  |  | 41.2 | 50.3 µM | 1.22 µM |  |  | 4.35 µM |  | CN1CCC(N2CCc3cc(NC(=N)c4cccs4)ccc32)CC1 [Example 37, N-(1-(1-Methylpiperidin-4-yl)indolin-5-yl)thiophene-2-carboximidamide] |  |  |  | clear antihyperalgesic effect |  |  | 
7 | 0.63 µM | 4.3 µM | 187 | 22.4 µM | 0.12 µM | 0.48 µM |  | > 100 µM |  | CNCCN1CCCc2ccc(NC(=N)c3cccs3)cc21 [Example 44, N-(1-(2-(Methylamino)ethyl)-1,2,3,4-tetrahydroquinolin-7-yl)thiophene-2-carboximidamide] |  |  |  |  |  |  | 
8 | > 100 µM | 0.34 µM | 260 | 156 µM | 0.6 µM | 3.8 µM |  | 6.57 µM |  | N=C(Nc1ccc2c(c1)CCCN2C1CCNCC1)c1cccs1 [Example 47] |  |  |  | clear antihyperalgesic effect |  |  | 
9 |  |  |  |  |  |  |  |  |  | CNS(=O)(=O)Cc1ccc2[nH]cc(CCN(C)C)c2c1 [Sumatriptan succinate, reference compound] |  |  |  |  |  |  | prevention of the development of hindpaw allodynia

Row | SMILES | IC50 (eNOS (Rat)) | IC50 (iNOS (Mouse)) | Selectivity eNOS/nNOS [1] | IC50 [4, 6] | IC50 [1, 7] | IC50 (nNOS (Rat); [8]) | IC50 [4] | IC50 [2, 9] | eNOS IC50 (rodent data in parentheses) (eNOS (Rat)) | IC50 [1] | IC50 [2] | IC50 (nNOS (Rat)) | antihyperalgesic effect in the Chung model [3] | Selectivity eNOS/nNOS (rodent data in parentheses) (nNOS (Rat); values in parentheses) | hindpaw allodynia after inflammatory soup (IS) ([5]; 30 mg/kg p.o. 15 minutes prior to IS) | hindpaw allodynia after inflammatory soup (IS) ([5]; 1 mg/kg s.c. 5 minutes prior to the soup, measured two hours after IS)
10 | CN(C)CCN1C(=O)CCc2cc(NC(=N)c3cccs3)ccc21 [Example 3, N-(1-(2-(dimethylamino)ethyl)-2-oxo-1,2,3,4-tetrahydroquinolin-6-yl)thiophene-2-carboximidamide] | 65 µM | > 100 µM |  |  |  |  |  |  |  | 0.58 µM | 32 µM | 0.21 µM | no antihyperalgesic effect |  |  | 
11 | CN1CCCC1CCN1CCCc2cc(NC(=N)c3cccs3)ccc21 (stereo not drawn) [Example 14, N-(1-(2-(1-methylpyrrolidin-2-yl)ethyl)-1,2,3,4-tetrahydroquinolin-6-yl)thiophene-2-carboximidamide] | 35 µM | > 100 µM | 137 | 17.4 µM |  |  |  |  |  |  | > 100 µM | 0.17 µM |  | (206) |  | 
12 | N=C(Nc1ccc2c(c1)CCCCN2CCN1CCCC1)c1cccs1 [Example 27, N-(1-(2-(Pyrrolidin-1-yl)ethyl)-2,3,4,5-tetrahydro-1H-benzo[b]azepin-7-yl)thiophene-2-carboximidamide] | 42.1 µM | > 100 µM | 138 | 48.7 µM | 0.35 µM | 0.092 µM |  |  |  |  | 54.4 µM |  |  | (523) |  | 
13 | Cl.Cl.N=C(Nc1ccc2c(c1)CCN2C1CCNCC1)c1cccs1 [Example 54, N-(1-(Piperidin-4-yl)indolin-5-yl)thiophene-2-carboximidamide dihydrochloride] | 12 µM | 7.53 µM | 170 | 46 µM | 0.27 µM | 2.6 µM |  |  |  |  | > 100 µM |  | clear antihyperalgesic effect |  |  | 
14 | CC(C)NCCN1CCCc2cc(NC(=N)c3cccs3)ccc21 [Example 61, N-(1-(2-(Isopropylamino)ethyl)-1,2,3,4-tetrahydroquinolin-6-yl)thiophene-2-carboximidamide] | 6.2 µM | 8 µM | 116 | 30.2 µM | 0.26 µM | 1.1 µM |  |  |  |  | 2.9 µM |  |  | (5.6) |  | 
